The structures appear in SMILES notation. pIC50: −log10 of the molar value.

The test deals with T1, sodium ion channel (Nav1.7) (Homo sapiens, UniProt Q15858).
T1 construct: host or cells: HEK293
T1 sequence (Q15858 whole entry): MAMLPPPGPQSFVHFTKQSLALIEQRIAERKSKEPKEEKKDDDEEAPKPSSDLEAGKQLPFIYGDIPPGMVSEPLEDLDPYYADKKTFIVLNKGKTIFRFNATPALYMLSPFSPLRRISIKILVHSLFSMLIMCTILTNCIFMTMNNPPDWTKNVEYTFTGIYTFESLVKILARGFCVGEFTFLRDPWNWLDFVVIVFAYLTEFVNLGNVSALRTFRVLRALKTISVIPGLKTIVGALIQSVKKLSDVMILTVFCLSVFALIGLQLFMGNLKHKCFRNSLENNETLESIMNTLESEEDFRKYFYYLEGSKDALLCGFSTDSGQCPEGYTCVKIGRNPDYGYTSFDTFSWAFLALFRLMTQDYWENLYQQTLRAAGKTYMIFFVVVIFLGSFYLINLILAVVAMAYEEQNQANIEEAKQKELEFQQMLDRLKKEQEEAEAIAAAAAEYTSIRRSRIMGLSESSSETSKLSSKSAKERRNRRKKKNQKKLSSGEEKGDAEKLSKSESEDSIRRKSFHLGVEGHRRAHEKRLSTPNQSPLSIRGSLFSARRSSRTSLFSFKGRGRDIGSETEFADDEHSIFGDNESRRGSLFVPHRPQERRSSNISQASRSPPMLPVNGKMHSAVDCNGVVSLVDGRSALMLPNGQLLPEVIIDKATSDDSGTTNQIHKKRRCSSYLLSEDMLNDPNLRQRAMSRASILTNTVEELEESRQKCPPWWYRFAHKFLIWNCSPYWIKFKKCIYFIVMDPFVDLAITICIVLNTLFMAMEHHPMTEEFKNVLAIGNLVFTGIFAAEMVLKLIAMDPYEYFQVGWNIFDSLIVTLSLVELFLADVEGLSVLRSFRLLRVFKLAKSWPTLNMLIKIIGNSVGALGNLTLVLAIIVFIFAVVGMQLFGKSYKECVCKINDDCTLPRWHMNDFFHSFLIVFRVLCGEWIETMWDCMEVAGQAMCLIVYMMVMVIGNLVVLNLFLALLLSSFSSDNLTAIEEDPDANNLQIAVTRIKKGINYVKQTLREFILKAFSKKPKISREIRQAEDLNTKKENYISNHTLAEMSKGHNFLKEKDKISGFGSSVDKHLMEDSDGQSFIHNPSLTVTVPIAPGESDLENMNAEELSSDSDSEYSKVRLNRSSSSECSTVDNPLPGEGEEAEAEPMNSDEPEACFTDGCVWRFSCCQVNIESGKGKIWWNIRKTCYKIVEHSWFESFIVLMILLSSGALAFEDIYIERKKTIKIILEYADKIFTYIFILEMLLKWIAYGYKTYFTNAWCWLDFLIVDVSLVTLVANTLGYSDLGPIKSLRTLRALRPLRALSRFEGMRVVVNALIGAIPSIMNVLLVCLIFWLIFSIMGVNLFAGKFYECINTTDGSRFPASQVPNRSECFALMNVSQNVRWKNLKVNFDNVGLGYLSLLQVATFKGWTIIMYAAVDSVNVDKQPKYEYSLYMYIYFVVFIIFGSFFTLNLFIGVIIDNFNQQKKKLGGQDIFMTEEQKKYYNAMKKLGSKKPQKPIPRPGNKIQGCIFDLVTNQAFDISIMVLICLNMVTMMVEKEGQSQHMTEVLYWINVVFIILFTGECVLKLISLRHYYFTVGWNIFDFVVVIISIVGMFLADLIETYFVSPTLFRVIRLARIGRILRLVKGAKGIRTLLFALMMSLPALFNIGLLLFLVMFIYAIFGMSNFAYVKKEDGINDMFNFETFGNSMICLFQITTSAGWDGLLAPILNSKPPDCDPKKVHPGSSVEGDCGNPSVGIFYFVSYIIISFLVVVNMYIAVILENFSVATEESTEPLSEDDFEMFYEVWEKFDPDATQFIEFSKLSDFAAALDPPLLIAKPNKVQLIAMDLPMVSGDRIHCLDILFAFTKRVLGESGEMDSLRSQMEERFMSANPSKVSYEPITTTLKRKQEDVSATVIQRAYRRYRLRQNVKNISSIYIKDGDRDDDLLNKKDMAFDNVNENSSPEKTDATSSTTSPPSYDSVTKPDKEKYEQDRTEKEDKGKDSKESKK
As to the kind of experiment: Blocking effect against sodium ion channel (Nav1.7), IonFlux16 auto patch clamp, hNav1.7 HEK293 cells. The test is classed as cell-based. The following applies: peak current after 50 seconds treatment, eight concentrations. In short, it runs like this:
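HEK293 cells stably expressing human Nav1.7 were recorded by IonFlux16 automated patch clamp in extracellular solution (pH 7.45, final DMSO ≤0.3%). Peak current was measured after 50 s exposure to each of eight compound concentrations and expressed as percent inhibition relative to pre-compound current.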
As a reminder, the pIC50 is the negative decadic logarithm of the IC50, by convention in mol/L. Compound `Cn1nccc1-c1cc(-c2ccnc(F)c2)ncc1Oc1ccc(S(=O)(=O)Nc2nccs2)cc1C#N` [Example 27, 3-cyano-4-((2′-fluoro-4-(1-methyl-1H-pyrazol-5-yl)-[2,4′-bipyridin]-5-yl)oxy)-N-(thiazol-2-yl)benzenesulfonamide] showed a pIC50 of under 7.00.

The compound `N#Cc1cc(S(=O)(=O)Nc2nccs2)ccc1Oc1cnc(-c2ccccc2)cc1-c1cccnc1F` [Example 29, 3-cyano-4-((2-fluoro-6′-phenyl-[3,4′-bipyridin]-3′-yl)oxy)-N-(thiazol-2-yl)benzenesulfonamide] gave a pIC50 of under 7.00. `N#Cc1cc(S(=O)(=O)Nc2nccs2)ccc1Oc1cnc(-c2ccccc2)cc1-c1ccc(F)nc1` [Example 30, 3-cyano-4-((6-fluoro-6′-phenyl-[3,4′-bipyridin]-3′-yl)oxy)-N-(thiazol-2-yl)benzenesulfonamide] showed a pIC50 of under 7.00. `Cn1nccc1-c1cc(-c2cccnc2)ncc1Oc1ccc(S(=O)(=O)Nc2nccs2)cc1F` [Example 21, 3-fluoro-4-((4-(1-methyl-1H-pyrazol-5-yl)-[2,3′-bipyridin]-5-yl)oxy)-N-(thiazol-2-yl)benzenesulfonamide] showed a pIC50 of under 7.00.

The compound `O=S(=O)(Nc1cscn1)c1cc(Cl)c(Oc2ccc(-c3ccc(F)cc3)nc2-c2ccoc2)cc1F` [Example 131, 5-chloro-2-fluoro-4-((6-(4-fluorophenyl)-2-(furan-3-yl)pyridin-3-yl)oxy)-N-(thiazol-4-yl)benzenesulfonamide] gave a pIC50 of 7.00 to 7.29. As to `O=S(=O)(Nc1nccs1)c1ccc(C(O)c2cccnc2-c2ccoc2)cc1` (centres unmarked) [Example 156, 4-((2-(furan-3-yl)pyridin-3-yl)(hydroxy)methyl)-N-(thiazol-2-yl)benzenesulfonamide], the negative logarithm of the IC50 (pIC50) is under 7.00. `Cn1nccc1-c1ccccc1C(O)c1ccc(S(=O)(=O)Nc2nccs2)cc1F` (centres unmarked) [Example 142, 3-fluoro-4-(hydroxy(2-(1-methyl-1H-pyrazol-5-yl)phenyl)methyl)-N-(thiazol-2-yl)benzenesulfonamide] had a negative-log IC50 (pIC50) of under 7.00. For `N#Cc1cc(S(=O)(=O)Nc2cscn2)ccc1Oc1cnc(-c2ccc(F)c(F)c2)cc1-c1cccnc1` [Example 85, 3-cyano-4-((6′-(3,4-difluorophenyl)-[3,4′-bipyridin]-3′-yl)oxy)-N-(thiazol-4-yl)benzenesulfonamide], the pIC50 was under 7.00. For the compound `Cn1cc(-c2nc(-c3ccc(F)nc3F)ccc2Oc2ccc(S(=O)(=O)Nc3nccs3)cc2C#N)cn1` [Example 126, 3-cyano-4-((2′,6′-difluoro-6-(1-methyl-1H-pyrazol-4-yl)-[2,3′-bipyridin]-5-yl)oxy)-N-(thiazol-2-yl)benzenesulfonamide], the pIC50 was under 7.00. The compound `Cn1nccc1-c1nc(-c2ccsc2)ccc1Oc1ccc(S(=O)(=O)Nc2nccs2)cc1C#N` [Example 119, 3-cyano-4-((2-(1-methyl-1H-pyrazol-5-yl)-6-(thiophen-3-yl)pyridin-3-yl)oxy)-N-(thiazol-2-yl)benzenesulfonamide] gave a pIC50 of 7.00 to 7.29.

For the compound `N#Cc1cc(S(=O)(=O)Nc2cscn2)ccc1Oc1cnc(-c2ccc(F)c(F)c2)cc1-c1cncnc1` [Example 93, 3-cyano-4-((6-(3,4-difluorophenyl)-4-(pyrimidin-5-yl)pyridin-3-yl)oxy)-N-(thiazol-4-yl)benzenesulfonamide], the pIC50 is under 7.00. `Cn1nccc1-c1nc(-c2ccccc2F)ccc1Oc1ccc(S(=O)(=O)Nc2nccs2)cc1C#N` [Example 118, 3-cyano-4-((6-(2-fluorophenyl)-2-(1-methyl-1H-pyrazol-5-yl)pyridin-3-yl)oxy)-N-(thiazol-2-yl)benzenesulfonamide] showed a pIC50 of under 7.00. `N#Cc1cc(S(=O)(=O)Nc2nccs2)ccc1Oc1ccc(-c2cccc(F)c2)nc1-c1ccoc1` [Example 110, 3-cyano-4-((6-(3-fluorophenyl)-2-(furan-3-yl)pyridin-3-yl)oxy)-N-(thiazol-2-yl)benzenesulfonamide] had a negative-log IC50 (pIC50) of over 7.30.

In turn, `O=S(=O)(Nc1cscn1)c1cc(Cl)c(Oc2ccc(-c3ccccc3F)nc2-c2ccoc2)cc1F` [Example 133, 5-chloro-2-fluoro-4-((6-(2-fluorophenyl)-2-(furan-3-yl)pyridin-3-yl)oxy)-N-(thiazol-4-yl)benzenesulfonamide] gave a pIC50 of under 7.00. Take `O=S(=O)(Nc1cscn1)c1cc(Cl)c(Oc2cnc(-c3ccc(F)c(F)c3)cc2-c2cn[nH]c2)cc1F` [Example 98, 5-chloro-4-((6-(3,4-difluorophenyl)-4-(1H-pyrazol-4-yl)pyridin-3-yl)oxy)-2-fluoro-N-(thiazol-4-yl)benzenesulfonamide]: the pIC50 is under 7.00. As for `Cn1nccc1-c1cc(Cl)ccc1C(O)c1ccc(S(=O)(=O)Nc2nccs2)cc1` (centres unmarked) [Example 138, 4-((4-chloro-2-(1-methyl-1H-pyrazol-5-yl)phenyl)(hydroxy)methyl)-N-(thiazol-2-yl)benzenesulfonamide], the pIC50 was under 7.00. `O=S(=O)(Nc1cscn1)c1cc(Cl)c(Oc2cnc(-c3cccc(F)c3)cc2-c2cn(-c3cccnc3)cn2)cc1F` [Example 100, 5-chloro-2-fluoro-4-((6-(3-fluorophenyl)-4-(1-(pyridin-3-yl)-1H-imidazol-4-yl)pyridin-3-yl)oxy)-N-(thiazol-4-yl)benzenesulfonamide] showed a pIC50 of under 7.00.

Regarding `O=S(=O)(Nc1nccs1)c1ccc(C(O)c2ccc(Cl)cc2-c2ccncc2)c(F)c1` (centres unmarked) [Example 146, 4-((4-chloro-2-(pyridin-4-yl)phenyl)(hydroxy)methyl)-3-fluoro-N-(thiazol-2-yl)benzenesulfonamide], the pIC50 is under 7.00.

`O=S(=O)(Nc1nccs1)c1ccc(C(O)c2cccnc2-c2ccoc2)c(F)c1` (centres unmarked) [Example 155, 3-fluoro-4-((2-(furan-3-yl)pyridin-3-yl)(hydroxy)methyl)-N-(thiazol-2-yl)benzenesulfonamide] had a pIC50 of under 7.00.

Compound `N#Cc1cc(S(=O)(=O)Nc2nccs2)ccc1Oc1ccc(-c2cccnc2F)nc1-c1ccoc1` [Example 103, 3-cyano-4-((2′-fluoro-6-(furan-3-yl)-[2,3′-bipyridin]-5-yl)oxy)-N-(thiazol-2-yl)benzenesulfonamide] gave a pIC50 of under 7.00. Turning to `Cn1cc(-c2cc(-c3ccc(F)cc3F)ncc2Oc2cc(F)c(S(=O)(=O)Nc3cscn3)cc2Cl)cn1` [Example 66, 5-chloro-4-((6-(2,4-difluorophenyl)-4-(1-methyl-1H-pyrazol-4-yl)pyridin-3-yl)oxy)-2-fluoro-N-(thiazol-4-yl)benzenesulfonamide 2,2,2-trifluoroacetate], the pIC50 is under 7.00. As to `N#Cc1cc(S(=O)(=O)Nc2nccs2)ccc1Oc1cnc(-c2ccccc2)cc1-c1cccnc1` [Example 33, 3-cyano-4-((6′-phenyl-[3,4′-bipyridin]-3′-yl)oxy)-N-(thiazol-2-yl)benzenesulfonamide], the pIC50 was under 7.00. The compound `Cn1nccc1-c1cc(-c2ccc(F)cc2)ncc1Oc1ccc(S(=O)(=O)Nc2nccs2)cc1C#N` [Example 23, 3-cyano-4-((6-(4-fluorophenyl)-4-(1-methyl-1H-pyrazol-5-yl)pyridin-3-yl)oxy)-N-(thiazol-2-yl)benzenesulfonamide] gave a pIC50 of under 7.00.

For `O=S(=O)(Nc1nccs1)c1ccc(C(O)c2ccc(Cl)cc2-c2cccnc2)c(F)c1` (centres unmarked) [Example 145, 4-((4-chloro-2-(pyridin-3-yl)phenyl)(hydroxy)methyl)-3-fluoro-N-(thiazol-2-yl)benzenesulfonamide], the pIC50 is under 7.00.

Consider `Cn1nccc1-c1cc(-c2ccccc2)ncc1Oc1ccc(S(=O)(=O)Nc2ncns2)cc1C#N` [Example 4, 3-cyano-4-((4-(1-methyl-1H-pyrazol-5-yl)-6-phenylpyridin-3-yl)oxy)-N-(1,2,4-thiadiazol-5-yl)benzenesulfonamide], for which the pIC50 was 7.00 to 7.29.

The compound `Cn1cc(-c2cc(-c3ccnc(F)c3)ncc2Oc2cc(F)c(S(=O)(=O)Nc3cscn3)cc2Cl)cn1` [Example 68, 5-chloro-2-fluoro-4-((2′-fluoro-4-(1-methyl-1H-pyrazol-4-yl)-[2,4′-bipyridin]-5-yl)oxy)-N-(thiazol-4-yl)benzenesulfonamide 2,2,2-trifluoroacetate] had a negative logarithm of the IC50 (pIC50) of under 7.00. In the case of `Cn1cc(-c2cc(-c3ccc(F)nc3)ncc2Oc2cc(F)c(S(=O)(=O)Nc3cscn3)cc2Cl)cn1` [Example 70, 5-chloro-2-fluoro-4-((6′-fluoro-4-(1-methyl-1H-pyrazol-4-yl)-[2,3′-bipyridin]-5-yl)oxy)-N-(thiazol-4-yl)benzenesulfonamide 2,2,2-trifluoroacetate], the pIC50 was under 7.00. Regarding `N#Cc1cc(S(=O)(=O)Nc2nccs2)ccc1Oc1cnc(-c2ccccc2)cc1-c1ccncc1` [Example 40, 3-cyano-4-((6-phenyl-[4,4′-bipyridin]-3-yl)oxy)-N-(thiazol-2-yl)benzenesulfonamide], the pIC50 was under 7.00. For `Cn1nccc1-c1cc(-c2cccnc2F)ncc1Oc1ccc(S(=O)(=O)Nc2nccs2)cc1C#N` [Example 18, 3-cyano-4-((2′-fluoro-4-(1-methyl-1H-pyrazol-5-yl)-[2,3′-bipyridin]-5-yl)oxy)-N-(thiazol-2-yl)benzenesulfonamide], the pIC50 was under 7.00. In turn, `O=S(=O)(Nc1cscn1)c1cc(Cl)c(Oc2cnc(-c3cccc(F)c3)cc2-c2ccnc(F)c2)cc1F` [Example 79, 5-chloro-2-fluoro-4-((2′-fluoro-6-(3-fluorophenyl)-[4,4′-bipyridin]-3-yl)oxy)-N-(thiazol-4-yl)benzenesulfonamide] had a pIC50 of under 7.00.

The compound `O=S(=O)(Nc1cscn1)c1cc(Cl)c(Oc2cnc(-c3cccc(F)c3)cc2-c2ccnc(N3CCNCC3)n2)cc1F` [Example 72, 5-chloro-2-fluoro-4-((6-(3-fluorophenyl)-4-(2-(piperazin-1-yl)pyrimidin-4-yl)pyridin-3-yl)oxy)-N-(thiazol-4-yl)benzenesulfonamide] showed a negative-log IC50 (pIC50) of under 7.00. In turn, `N#Cc1cc(S(=O)(=O)Nc2nccs2)ccc1Oc1cnc(-c2cccnc2F)cc1-c1ccoc1` [Example 10, 3-cyano-4-(2′-fluoro-4-(furan-3-yl)-2,3′-bipyridin-5-yloxy)-N-(thiazol-2-yl)benzenesulfonamide] showed a pIC50 of 7.00 to 7.29.

The values above are taken from patent publication US9376429B2, “Sodium channel blockers, preparation method thereof and use thereof” (Daewoong Pharmaceutical Co., Ltd., priority 2012, dated 2016).
